Results: patent publication US8975235B2, “Lysophosphatidic acid receptor antagonists” (InterMune, Inc., priority 2011, dated 2015)

Each compound was assayed against Human LPA1 (Homo sapiens, UniProt Q92633) (assay: Beta-Arrestin based assay for human LPA1R antagonists (PathHunter)). Conditions: CHO cells stably expressing ProLink tagged human LPA1R; agonist LPA 0.5 micromolar.
Chain of Human LPA1 (Q92633 whole entry): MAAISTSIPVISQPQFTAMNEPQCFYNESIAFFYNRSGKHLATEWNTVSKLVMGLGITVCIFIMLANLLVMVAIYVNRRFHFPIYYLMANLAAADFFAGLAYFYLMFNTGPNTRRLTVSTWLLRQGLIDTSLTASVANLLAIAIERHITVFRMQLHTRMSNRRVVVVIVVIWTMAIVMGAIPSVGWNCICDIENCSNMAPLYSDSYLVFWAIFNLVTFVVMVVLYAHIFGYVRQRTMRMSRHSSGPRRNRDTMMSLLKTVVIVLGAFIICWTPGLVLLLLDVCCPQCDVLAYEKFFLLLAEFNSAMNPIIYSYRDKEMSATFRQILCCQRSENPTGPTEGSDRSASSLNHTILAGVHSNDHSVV
Type: cell-based
Design: host or cells: CHO
Method: Beta-Arrestin Based Assays for Human LPA1R Antagonists and Agonists
A CHO cell line stably expressing the ProLink™ tagged human LPA1R was obtained from DiscoverX Inc, Fremont, Calif. In this system, β-Arrestin was fused to an N-terminal deletion mutant of β-galactosidase (termed the enzyme acceptor or EA), the human LPA1R was fused to a smaller (42 amino acids) weakly complementing fragment termed ProLink™. […] Cell handling and assays were performed according to protocols specified in the PathHunter® assays kits (DiscoverX, Fremont, Calif.). Assays were performed in quadruplicate in white 384 well plates. End point luminescence data were plotted and fit to a 4 parameter logistic function to obtain IC50 values. For antagonist assays, an […] concentration of agonist (LPA) equal to 0.5 micromolar was used.
Work on `Cc1cc(-c2snc(C)c2NC(=O)O[C@H](C)c2ccccc2Cl)c(C)cc1-c1ccc(C2(C(=O)O)CC2)cc1` [Compound 123] yielded an EC50 of 50 to 500 nM. For `Cc1cc(-c2ccc(C3(C(=O)O)CC3)cc2)c(F)cc1-c1snc(C)c1NC(=O)O[C@H](C)c1ccccc1Cl` [Compound 124], the EC50 was under 50 nM. Work on `Cc1nsc(-c2ccc(-c3ccc(C4(C(=O)O)CCCC4)cc3)cc2)c1NC(=O)O[C@H](C)c1ccccc1` [Compound 125] yielded an EC50 of 50 to 500 nM. `Cc1nsc(-c2ccc(-c3ccc(C4(C(=O)O)CCCCC4)cc3)cc2)c1NC(=O)O[C@H](C)c1ccccc1` [Compound 126] was tested, and the EC50 was 50 to 500 nM. `Cc1nsc(-c2ccc(-c3ccc(C4(C(=O)O)CCC4)cc3)cc2)c1NC(=O)O[C@H](C)c1ccccc1` [Compound 127] gave an EC50 of 50 to 500 nM. In the case of `Cc1noc(C#Cc2ccc3cc(CC(=O)O)ccc3c2)c1NC(=O)O[C@H](C)c1ccccc1` [Compound 128], the EC50 is reported as 50 to 500 nM. Work on `Cc1noc(C#Cc2ccc3cc(CC(=O)O)ccc3c2)c1NC(=O)O[C@H](C)c1ccccc1Cl` [Compound 129] yielded an EC50 of 50 to 500 nM. `Cc1noc(C#Cc2ccc3cc(C4(C(=O)O)CC4)ccc3c2)c1NC(=O)O[C@H](C)c1ccccc1` [Compound 130] showed an EC50 of under 50 nM. `Cc1noc(C#Cc2ccc3cc(C4(C(=O)O)CC4)ccc3c2)c1NC(=O)O[C@H](C)c1ccccc1Cl` [Compound 131] gave an EC50 of under 50 nM. `Cc1noc(-c2ccc(-c3ccc(N4CC[C@H](C(=O)O)C4)cc3)cc2)c1NC(=O)O[C@H](C)c1ccccc1` [Compound 132] was tested, and the EC50 was 50 to 500 nM. In the case of `Cc1noc(-c2ccc(-c3ccc(N4CC[C@@H](C(=O)O)C4)cc3)cc2)c1NC(=O)O[C@H](C)c1ccccc1` [Compound 133], the EC50 is reported as over 500 nM. `Cc1noc(-c2ccc(-c3ccc(N4CC[C@@H](C(=O)O)C4)cc3)cc2)c1NC(=O)O[C@H](C)c1ccccc1Cl` [Compound 134] was tested, and the EC50 was 50 to 500 nM. Compound `Cc1noc(-c2ccc(-c3ccc(N4CC[C@H](C(=O)O)C4)cc3)cc2)c1NC(=O)O[C@H](C)c1ccccc1Cl` [Compound 135] has an EC50 of 50 to 500 nM. For `Cc1noc(-c2ccc(-c3ccc(N4CCC[C@@H](C(=O)O)C4)cc3)cc2)c1NC(=O)O[C@H](C)c1ccccc1` [Compound 136], the EC50 was 50 to 500 nM. Compound `Cc1noc(-c2ccc(-c3ccc(N4CCC[C@H](C(=O)O)C4)cc3)cc2)c1NC(=O)O[C@H](C)c1ccccc1` [Compound 137] has an EC50 of 50 to 500 nM. Work on `Cc1noc(-c2ccc(-c3ccc(N4CCC[C@@H](C(=O)O)C4)cc3)cc2)c1NC(=O)O[C@H](C)c1ccccc1Cl` [Compound 138] yielded an EC50 of 50 to 500 nM. `Cc1noc(-c2ccc(-c3ccc(N4CCC[C@H](C(=O)O)C4)cc3)cc2)c1NC(=O)O[C@H](C)c1ccccc1Cl` [Compound 139] gave an EC50 of 50 to 500 nM. With `Cc1noc(-c2ccc3cc(C#CC4(C(=O)O)CC4)ccc3c2)c1NC(=O)O[C@H](C)c1ccccc1Cl` [Compound 141] the EC50 was under 50 nM. `Cc1noc(-c2ccc3cc(C#CC4(C(=O)O)CC4)ccc3c2)c1NC(=O)OCc1ccccc1` [Compound 142] showed an EC50 of under 50 nM. For `C[C@@H](OC(=O)Nc1ncoc1-c1ccc(-c2ccc(C3(C(=O)O)CC3)cc2)cc1)c1ccccc1` [Compound 143], the EC50 was 50 to 500 nM. `C[C@@H](OC(=O)Nc1ncoc1-c1ccc(-c2ccc(C3(C(=O)O)CC3)cc2)cc1)c1ccccc1Cl` [Compound 144] gave an EC50 of under 50 nM. With `O=C(Nc1ncoc1-c1ccc(-c2ccc(C3(C(=O)O)CC3)cc2)cc1)OCc1ccccc1` [Compound 145] the EC50 was 50 to 500 nM. With `O=C(Nc1ocnc1-c1ccc(-c2ccc(C3(C(=O)O)CC3)cc2)cc1)OCc1ccccc1` [Compound 148] the EC50 was over 500 nM. With `C[C@@H](OC(=O)Nc1c(-c2ccc(-c3ccc(C4(C(=O)O)CC4)cc3)cc2)oc2cnccc12)c1ccccc1` [Compound 150] the EC50 was under 50 nM. `O=C(Nc1c(-c2ccc(-c3ccc(C4(C(=O)O)CC4)cc3)cc2)oc2cnccc12)OCc1ccccc1` [Compound 151] showed an EC50 of 50 to 500 nM. With `Cc1nc(-c2ccc(-c3ccc(C4(C(=O)O)CC4)cc3)cc2)c(NC(=O)O[C@H](C)c2ccccc2)o1` [Compound 154] the EC50 was 50 to 500 nM. With `Cc1nc(-c2ccc(-c3ccc(C4(C(=O)O)CC4)cc3)cc2)c(NC(=O)O[C@H](C)c2ccccc2Cl)o1` [Compound 155] the EC50 was 50 to 500 nM. With `Cc1nc(-c2ccc(-c3ccc(C4(C(=O)O)CC4)cc3)cc2)c(NC(=O)OCc2ccccc2)o1` [Compound 156] the EC50 was over 500 nM. `Cc1nnn(-c2ccc(-c3ccc(C4(C(=O)O)CC4)cc3)cc2)c1NC(=O)OCc1ccccc1` [Compound 157] showed an EC50 of 50 to 500 nM. `C[C@@H](OC(=O)Nc1nncn1-c1ccc(-c2ccc(C3(C(=O)O)CC3)cc2)cc1)c1ccccc1` [Compound 158] was tested, and the EC50 was over 500 nM. `C[C@@H](OC(=O)Nc1nncn1-c1ccc(-c2ccc(C3(C(=O)O)CC3)cc2)cc1)c1ccccc1Cl` [Compound 159] was tested, and the EC50 was over 500 nM. Work on `O=C(Nc1nncn1-c1ccc(-c2ccc(C3(C(=O)O)CC3)cc2)cc1)OCc1ccccc1` [Compound 160] yielded an EC50 of over 500 nM. `Cc1nc(NC(=O)O[C@H](C)c2ccccc2)n(-c2ccc(-c3ccc(C4(C(=O)O)CC4)cc3)cc2)n1` [Compound 161] showed an EC50 of over 500 nM. `Cc1nc(NC(=O)O[C@H](C)c2ccccc2Cl)n(-c2ccc(-c3ccc(C4(C(=O)O)CC4)cc3)cc2)n1` [Compound 162] was tested, and the EC50 was over 500 nM. `C[C@@H](OC(=O)Nc1ccn(-c2ccc(-c3ccc(C4(C(=O)O)CC4)cc3)cc2)n1)c1ccccc1` [Compound 163] was tested, and the EC50 was over 500 nM. `C[C@@H](OC(=O)Nc1cncn1-c1ccc(-c2ccc(C3(C(=O)O)CC3)cc2)cc1)c1ccccc1Cl` [Compound 164] gave an EC50 of 50 to 500 nM. `C[C@@H](OC(=O)Nc1cncn1-c1ccc(-c2ccc(C3(C(=O)O)CC3)cc2)cc1)c1ccccc1` [Compound 165] showed an EC50 of 50 to 500 nM. In the case of `O=C(Nc1cncn1-c1ccc(-c2ccc(C3(C(=O)O)CC3)cc2)cc1)OCc1ccccc1` [Compound 166], the EC50 is reported as over 500 nM. Work on `Cn1cnc(-c2ccc(-c3ccc(C4(C(=O)O)CC4)cc3)cc2)c1NC(=O)OCc1ccccc1` [Compound 167] yielded an EC50 of over 500 nM. Compound `C[C@@H](OC(=O)Nc1c(-c2ccc(-c3ccc(C4(C(=O)O)CC4)cc3)cc2)ncn1C)c1ccccc1Cl` [Compound 168] has an EC50 of under 50 nM. For `C[C@@H](OC(=O)Nc1c(-c2ccc(-c3ccc(C4(C(=O)O)CC4)cc3)cc2)ncn1C)c1ccccc1` [Compound 169], the EC50 was 50 to 500 nM. Work on `Cn1ncc(-c2ccc(-c3ccc(C4(C(=O)O)CC4)cc3)cc2)c1NC(=O)OCc1ccccc1` [Compound 172] yielded an EC50 of under 50 nM. With `O=C(Nc1snnc1-c1ccc(-c2ccc(C3(C(=O)O)CC3)cc2)cc1)OCc1ccccc1` [Compound 173] the EC50 was over 500 nM. With `C[C@@H](OC(=O)Nc1snnc1-c1ccc(-c2ccc(C3(C(=O)O)CC3)cc2)cc1)c1ccccc1` [Compound 174] the EC50 was 50 to 500 nM. `C[C@@H](OC(=O)Nc1snnc1-c1ccc(-c2ccc(C3(C(=O)O)CC3)cc2)cc1)c1ccccc1Cl` [Compound 175] was tested, and the EC50 was 50 to 500 nM. Work on `C[C@@H](OC(=O)Nc1nonc1-c1ccc(-c2ccc(C3(C(=O)O)CC3)cc2)cc1)c1ccccc1` [Compound 176] yielded an EC50 of under 50 nM. With `C[C@@H](OC(=O)Nc1nonc1-c1ccc(-c2ccc(C3(C(=O)O)CC3)cc2)cc1)c1ccccc1Cl` [Compound 177] the EC50 was under 50 nM. With `Cc1noc(-c2nc3cc4oc(C5(C(=O)O)CC5)nc4cc3o2)c1NC(=O)O[C@H](C)c1ccccc1` [Compound 178] the EC50 was 50 to 500 nM. With `Cc1nsc(-c2cc(F)c(-c3ccc(C4(C(=O)O)CC4)cc3)cc2Cl)c1NC(=O)O[C@H](C)c1ccccc1Cl` [Compound 180] the EC50 was under 50 nM. `Cc1nsc(-c2cc(F)c(-c3ccc(C4(C(=O)O)CC4)cc3)cc2F)c1NC(=O)O[C@H](C)c1ccccc1Cl` [Compound 181] was tested, and the EC50 was under 50 nM. Compound `Cc1nsc(-c2c(F)cc(-c3ccc(C4(C(=O)O)CC4)cc3)cc2F)c1NC(=O)O[C@H](C)c1ccccc1` [Compound 183] has an EC50 of 50 to 500 nM. With `Cc1nsc(-c2ccc(-c3ccc(C4(C(=O)O)CC4)cc3)cc2F)c1NC(=O)O[C@H](C)c1ccccc1` [Compound 184] the EC50 was under 50 nM. With `Cc1nsc(-c2ccc(-c3ccc(C4(C(=O)O)CC4)cc3)c(Cl)c2)c1NC(=O)O[C@H](C)c1ccccc1Cl` [Compound 186] the EC50 was under 50 nM. `Cc1nsc(-c2ccc(-c3ccc(C4(C(=O)O)CC4)cc3)cc2Cl)c1NC(=O)O[C@H](C)c1ccccc1Cl` [Compound 187] was tested, and the EC50 was under 50 nM. `Cc1nsc(-c2ccc(-c3ccc(C4(C(=O)O)CC4)cc3)c(Cl)c2)c1NC(=O)O[C@H](C)c1ccccc1` [Compound 188] showed an EC50 of under 50 nM. For `Cc1nsc(-c2ccc(-c3ccc(C4(C(=O)O)CC4)cc3)cc2C#N)c1NC(=O)O[C@H](C)c1ccccc1` [Compound 189], the EC50 was over 500 nM. For `Cc1nsc(-c2ccc(-c3ccc(CC(=O)O)cc3Cl)cc2)c1NC(=O)O[C@H](C)c1ccccc1Cl` [Compound 190], the EC50 was 50 to 500 nM. Work on `Cc1nsc(-c2ccc(-c3ccc(C4(C(=O)O)CC4)c(Cl)c3)cc2)c1NC(=O)O[C@H](C)c1ccccc1Cl` [Compound 191] yielded an EC50 of under 50 nM. For `Cc1nsc(-c2ccc(-c3ccc(CC(=O)O)c(Cl)c3)cc2)c1NC(=O)O[C@H](C)c1ccccc1Cl` [Compound 192], the EC50 was 50 to 500 nM. With `Cc1cc(CC(=O)O)ccc1-c1ccc(-c2snc(C)c2NC(=O)O[C@H](C)c2ccccc2Cl)cc1` [Compound 193] the EC50 was 50 to 500 nM. Work on `Cc1nsc(-c2ccc(-c3ccc(C4(C(=O)O)CC4)cc3)cc2)c1NC(=O)O[C@H](C)c1cccc(F)c1` [Compound 194] yielded an EC50 of under 50 nM. `Cc1nsc(-c2ccc(-c3ccc(CC(=O)O)cc3F)cc2)c1NC(=O)O[C@H](C)c1ccccc1Cl` [Compound 195] was tested, and the EC50 was 50 to 500 nM. Work on `Cc1nsc(-c2ccc(-c3ccc(CC(=O)O)c(F)c3)cc2)c1NC(=O)O[C@H](C)c1ccccc1Cl` [Compound 196] yielded an EC50 of 50 to 500 nM. With `Cc1nsc(-c2ccc(-c3ccc(C4(C(=O)O)CC4)c(F)c3)cc2)c1NC(=O)O[C@H](C)c1ccccc1Cl` [Compound 197] the EC50 was under 50 nM.
